Data as given in patent US4462992A, “Nitroimidazole radiosensitizers for hypoxic tumor cells and compositions thereof” (priority 1982, dated 1984).
Where two headings read alike, the source gives them in different places.

Columns and labels:
[1] = tested on: Chinese hamster cells line V-79; test: Radiosensitization (enhancement ratio, cobalt-60 irradiation of hypoxic cells); type: cell-based
Description: (§1) Asynchronous monolayers of cultures of Chinese hamster cells line V-79 were employed in all experiments. The monolayers were derived from exponentially growing cultures. Methods of culturing and handling have been reported earlier by Cooke et al, Rad. Res. 65, 152 (1976). The plated cultures were rendered hypoxic in sealed dural containers capable of holding seven petri dishes, by purging with nitrogen (oxygen-free grade) for one hour. Irradiation was carried out by using a cobalt-60 source at a dose rate of approximately 240 rad/min according to the procedure described by Agrawal et al Rad. Res. 78:532 (1979). A dose of 1400 rad was given to hypoxic cells in glass petri dishes in the presence of a given drug concentration (2000 cells/dish). Cell survival was estimated from unirradiated toxic hypoxic cells exposed to the same drug concentration. Complete survival curves were obtained for each compound at the radiation doses of 400 to 3000 rad. The Do value was calculated for each compound and the ratio of the Do value for the hypoxic control cells to the Do value of the hypoxic drug treated cells provided the sensitized enhancement ratio of the corresponding agent.
(§2) Cultures were incubated for 6 days at 37° C. in an atmosphere of 5% CO2. The resulting colonies were fixed in absolute ethanol and stained with methylene blue and counted.

[2] = In vitro cytotoxicity in hypoxic cells (% survival); type: cell-based, Chinese hamster; conditions: hamster, v-79 cells; for viability at 2 h, 100 µM / viability at 4 h, 100 µM: 0.1 mM; for viability at 2 h, 500 µM / viability at 4 h, 500 µM: 0.5 mM
Description: as §1, §2
(§3) To determine toxicity in vitro, glass petri dishes containing approximately 200 Chinese hamster cells/dish were exposed to a range of concentrations of each drug for 2 hours and/or 4 hours at 37° C. Drug concentrations between 10 μM and 0.5 mM were employed initially.

[3] = tested on: hypoxic cells (Chinese hamster cells line V-79); test: Differential toxicity to hypoxic cells at 4 hours; type: cell-based
Description: as §1, §3

[4] = In vitro cytotoxicity in oxic cells (% survival); type: cell-based, Chinese hamster; conditions: hamster, v-79 cells, oxic; for viability at 2 h, 100 µM / viability at 4 h, 100 µM: 0.1 mM
Description: as §1, §2, §3

[5] = in vivo; conditions: mouse, ip
Description: Neurotoxicity in mice was determined using mice of strain CDF1. This was carried out by (1) determining the LD50 of each compound in mice and (2) observing the animals for acute neurotoxic symptoms such as convulsions. The drugs were either solubilized or suspended in normal saline and administered intraperitoneally to groups of ten mice. […]

[6] = tested on: Chinese hamster cells line V-79 (oxic); test: In vitro cytotoxicity in oxic cells (% survival); type: cell-based; conditions: 4 hours, 240 min
Description: as §1, §2, §3

[7] = tested on: hypoxic tumor cells; conditions: cited from earlier work
[8] = tested on: central nervous system; conditions: cited from earlier work
[9] = 2 hours, read-out: In vitro cytoxicity in hypoxic cells (% survival at 2 hours)
[10] = 4 hours, read-out: In vitro cytoxicity in hypoxic cells (% survival at 4 hours)
[11] = 2 hours, read-out: In vitro cytoxicity in oxic cells (% survival at 2 hours)
[12] = 2 hours, 0.5 mM, read-out: In vitro cytoxicity in oxic cells (% survival at 2 hours)
[13] = 4 hours, read-out: In vitro cytoxicity in oxic cells (% survival at 4 hours)

Row | Structure (SMILES) | Radiosensitization (enhancement ratio in Chinese hamster cells) ([1]; 0.5 mM) | viability at 2 h, 100 µM [2, 9] | viability at 2 h, 500 µM [2, 9] | viability at 4 h, 100 µM [2, 10] | viability at 4 h, 500 µM [2, 10] | Differential toxicity to hypoxic cells at 4 hours [3] | viability at 2 h, 100 µM [4, 11] | viability at 2 h, 500 µM [4, 12] | viability at 4 h, 100 µM [4, 13] | effectiveness in vivo [7] | also measured
1 | O=[N+]([O-])c1nccn1[C@@H]1C=C[C@H](O)[C@@H](CO)O1 [A, 1(2',3didehydro-2',3dideoxy-D-erythro-hexopyranonyl)-2-nitroimidazole] | 2.2 | 97.3% | 75.9% | 56.7% | 15.8% | Yes | 99% | 90% | 99% | – | Radiosensitization (enhancement ratio in Chinese hamster cells) ([1]; 0.25 mM): 2.0; viability at 2 h, 250 µM ([2]; 2 hours, 0.25 mM, read-out: In vitro cytoxicity in hypoxic cells (% survival at 2 hours)): 92%; viability at 2 h, 1000 µM ([2]; 2 hours, 1.0 mM, read-out: In vitro cytoxicity in hypoxic cells (% survival at 2 hours)): 59.6%; viability at 4 h, 250 µM ([2]; 4 hours, 0.25 mM, read-out: In vitro cytoxicity in hypoxic cells (% survival at 4 hours)): 26.7%; viability at 4 h, 1000 µM ([2]; 4 hours, 1.0 mM, read-out: In vitro cytoxicity in hypoxic cells (% survival at 4 hours)): 0%; viability at 2 h, 250 µM ([4]; 2 hours, 0.25 mM, read-out: In vitro cytoxicity in oxic cells (% survival at 2 hours)): 104%; viability at 2 h, 1000 µM ([4]; 2 hours, 1.0 mM, read-out: In vitro cytoxicity in oxic cells (% survival at 2 hours)): 82.4%; viability at 4 h, 250 µM ([4]; 4 hours, 0.25 mM, read-out: In vitro cytoxicity in oxic cells (% survival at 4 hours)): 104%; LD50 at 24 h [5]: 3300 mg/kg
2 | CC(=O)OC[C@H]1O[C@@H](n2ccnc2[N+](=O)[O-])C=C[C@@H]1OC(C)=O [C, 1(4',6di-O--acetyl2',3didehydro-2',3dideoxy-D-erythro-hexopyranosyl)-2-ni roimidazole] | 1.6 | 104% | 92.6% | 86.6% | 41.1% | Yes | 95% | 97% | 101% | – | viability at 2 h, 10 µM ([4]; 2 hours, 0.01 mM, read-out: In vitro cytoxicity in oxic cells (% survival at 2 hours)): 101%; viability at 2 h, 50 µM ([4]; 2 hours, 0.05 mM, read-out: In vitro cytoxicity in oxic cells (% survival at 2 hours)): 100%; viability at 4 h, 500 µM ([4]; 4 hours, 0.5 mM, read-out: In vitro cytoxicity in oxic cells (% survival at 4 hours)): 103%; In vitro cytoxicity in oxic cells (% survival at 4 hours) ([6]; 0.1 mM, 100 µM): 94%; In vitro cytoxicity in oxic cells (% survival at 4 hours) ([6]; 0.5 mM, 500 µM): 88%
3 | COCC(O)Cn1ccnc1[N+](=O)[O-] (stereo not drawn) [N, Misonidazole] | – | – | – | – | – | Yes | – | – | – | effective in vivo | side effects in mice ([8]; administered orally): peripheral neuropathy and convulsions in mice; central nervous system toxicity ([8]; use in humans): central nervous system toxicity is a limiting factor for their use in humans
4 | Cc1ncc([N+](=O)[O-])n1CCO [O, Metronidazole] | – | – | – | – | – | Yes | – | – | – | effective in vivo | Radiosensitization (enhancement ratio in Chinese hamster cells) ([1]; 1.0 mM): 1.5; radiosensitization activity ([7]; in vivo and in vitro): active both in vivo and in vitro; side effects in mice ([8]; in vivo, po): peripheral neuropathy and convulsions in mice; central nervous system toxicity ([8]; in vivo): central nervous system toxicity is a limiting factor for their use in humans
